From patent US20200131144A1, “AMINE OR (THIO)AMIDE CONTAINING LXR MODULATORS” (Phenex-FXR GmbH, priority 2017, published 2020)

Legend:
LXRα full length (FL) = target: T1, LXRα full length (FL) (Homo sapiens, UniProt Q13133); experiment: LXR Gal4 reporter transient transfection assay, mammalian two-hybrid, FL-M2H Gal4α; type: cell-based; settings: HEK293 cells; inverse agonist unless *
T1 construct: the full length (FL) proteins of LXRα (amino acids 1-447); NP005684; expressed in transfected cells; host or cells: HEK293
T1 sequence (Q13133 1-447): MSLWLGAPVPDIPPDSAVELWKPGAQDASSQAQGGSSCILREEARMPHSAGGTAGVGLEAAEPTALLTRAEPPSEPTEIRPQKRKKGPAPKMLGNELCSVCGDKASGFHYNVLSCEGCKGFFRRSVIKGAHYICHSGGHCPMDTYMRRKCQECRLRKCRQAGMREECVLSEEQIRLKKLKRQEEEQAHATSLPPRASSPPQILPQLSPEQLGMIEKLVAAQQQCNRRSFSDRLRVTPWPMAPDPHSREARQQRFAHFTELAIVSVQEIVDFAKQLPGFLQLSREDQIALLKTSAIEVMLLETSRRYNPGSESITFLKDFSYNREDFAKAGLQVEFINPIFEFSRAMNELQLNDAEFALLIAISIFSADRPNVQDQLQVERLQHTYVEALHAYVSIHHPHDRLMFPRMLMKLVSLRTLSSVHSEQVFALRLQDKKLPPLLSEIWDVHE
Protocol: (§1) The tested compounds were usually dissolved, tested and stored as 20 mM stock solutions in DMSO. Since sulfonyl acetic acid derivatives tend to decarboxylate under these conditions, these stock solutions were prepared, tested and stored as 20 mM DMSO stock solutions containing 100 mM trifluoroacetic acid (5 equivalents). Sulfonyl acetic acid derivatives are shelf stable as solid at rt for long time as reported by Griesbrecht et al. (Synlett 2010:374) or Faucher et al. (J. Med. Chem. 2004; 47:18).
(§2) LXR Gal4 Reporter Transient Transfection Assays
(§3) LXRα and LXRβ activity status was determined via detection of interaction with coactivator and corepressor proteins in mammalian two-hybrid experiments (M2H). For this, via transient transfection the full length (FL) proteins of LXRα (amino acids 1-447; NP005684; SEQ ID NO:1) or LXRβ-(amino acids 1-461; NP009052; SEQ ID NO:2) or the ligand-binding domains (LBD) of LXRα (amino acids 155-447 SEQ ID NO:3) or LXR (amino acids 156-461; SEQ ID NO:4) were expressed from pCMV-AD (Stratagene) as fusions to the transcriptional activation domain of NFkB. As cofactors, domains of either the steroid receptor coactivator 1 (SRC1; amino acids 552-887; SEQ ID NO:5) or of the corepressor NCoR (amino acids 1906-2312; NP006302; SEQ ID NO:6) were expressed as fusions to the DNA binding domain of the yeast transcription factor GAL4 (from pCMV-BD; Stratagene). Interaction was monitored via activation of a coexpressed Firefly Luciferase Reporter gene under control of a promoter containing repetitive GAL4 response elements (vector pFRLuc; Stratagene). Transfection efficiency was controlled via cotransfection of constitutively active pRL-CMV Renilla reniformis luciferase reporter (Promega). HEK293 cells were grown in minimum essential medium (MEM) with 2 mM L-glutamine and Earle's balanced salt solution supplemented with 8.3% fetal bovine serum, 0.1 mM non-essential amino acids, 1 mM sodium pyruvate, at 37° C. in 5% CO2. 3.5×10^4 cells/well were plated in 96-well cell culture plates in growth medium supplemented with 8.3% fetal bovine serum for 16-20 h to—90% confluency. For transfection, medium was taken off and LXR and cofactor expressing plasmids as well as the reporter plasmids are added in 30 μL OPTIMEM/well including polyethylene-imine (PEI) as vehicle. Typical amounts of plasmids transfected/well: pCMV-AD-LXR (5 ng), pCMV-BD-cofactor (5 ng), pFR-Luc (100 ng), pRL-CMV (0.5 ng). Compound stocks were prepared in DMSO, prediluted in MEM to a total volume of 120 μL, and added 4 h after addition of the transfection mixture (final vehicle concentration not exceeding 0.2%). Cells were incubated for additional 16 h, lysed for 10 min in 1×Passive Lysis Buffer (Promega) and Firefly and Renilla luciferase activities were measured sequentially in the same cell extract using buffers containing D-luciferine and coelenterazine, respectively. Measurements of luminescence were done in a BMG-luminometer.

[1] = target: T2, GST-LXRβ ligand-binding domain (Homo sapiens, UniProt P55055, INS174Q); experiment: TR-FRETβ activity assay (NCoA3 coactivator peptide recruitment); type: biochemical; settings: 1 μM 24(S)-25-epoxycholesterol as prestimulating agonist; inverse agonist unless *
T2 construct: amino acids 156-461; NP009052; made in house; host or cells: E. coli
T2 sequence (P55055 with tags, fused parts or gaps INS174Q limits assumed): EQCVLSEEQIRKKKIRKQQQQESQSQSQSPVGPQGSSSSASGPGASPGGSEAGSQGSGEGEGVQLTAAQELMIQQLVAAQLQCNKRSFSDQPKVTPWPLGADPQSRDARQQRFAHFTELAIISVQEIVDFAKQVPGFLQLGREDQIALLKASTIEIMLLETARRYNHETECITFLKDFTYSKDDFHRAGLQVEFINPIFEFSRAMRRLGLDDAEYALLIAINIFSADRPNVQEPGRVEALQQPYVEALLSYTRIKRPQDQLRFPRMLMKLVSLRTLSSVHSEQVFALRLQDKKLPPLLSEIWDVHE
Protocol: The tested compounds were usually dissolved, tested and stored as 20 mM stock solutions in DMSO. […] Sulfonyl acetic acid derivatives are shelf stable as solid at rt for long time as reported by Griesbrecht et al. (Synlett 2010:374) or Faucher et al. (J. Med. Chem. 2004; 47:18). TR-FRETβ Activity Assay Recombinant GST-LXRβ ligand-binding domain (LBD; amino acids 156-461; NP009052; SEQ ID NO:4) was expressed in E. coli and purified via gluthatione-sepharose affinity chromatography. N-terminally biotinylated NCoA3 coactivator peptide (SEQ ID NO:7) was chemically synthesized (Eurogentec). […] Finally, a detection mix was added containing anti GST-Tb cryptate (CisBio; 610SAXLB) and Streptavidin-XL665 (CisBio; 610SAXLB) as fluorescent donor and acceptor, respectively, as well as the coactivator peptide and LXRβ-LBD protein (SEQ ID NO:4). The reaction was mixed thoroughly, equilibrated for 1 h at 4° C. and vicinity of LXRβ and coactivator peptide was detected by measurement of fluorescence in a VictorX4 multiplate reader (PerkinElmer Life Science) using 340 nm as excitation and 615 and 665 nm as emission wavelengths. Assays were performed in triplicates. Final Assay Concentrations of Components: 240 mM KCl, 1 μg/μL BSA, 0.002% Triton-X-100, 125 pg/μL anti GST-Tb cryptate, 2.5 ng/μL Streptavidin-XL665, coactivator peptide (400 nM), LXRP protein ([…], i.e. 76 nM).

LXRβ full length (FL) = target: T3, LXRβ full length (FL) (Homo sapiens, UniProt P55055, INS174Q); experiment: LXR Gal4 reporter transient transfection assay, mammalian two-hybrid, FL-M2H Gal4β; type: cell-based; settings: HEK293 cells; inverse agonist unless *
T3 construct: the full length (FL) proteins of LXRα (amino acids 1-447); NP005684; NP009052; expressed in transfected cells; host or cells: HEK293
T3 sequence (P55055 with tags, fused parts or gaps INS174Q): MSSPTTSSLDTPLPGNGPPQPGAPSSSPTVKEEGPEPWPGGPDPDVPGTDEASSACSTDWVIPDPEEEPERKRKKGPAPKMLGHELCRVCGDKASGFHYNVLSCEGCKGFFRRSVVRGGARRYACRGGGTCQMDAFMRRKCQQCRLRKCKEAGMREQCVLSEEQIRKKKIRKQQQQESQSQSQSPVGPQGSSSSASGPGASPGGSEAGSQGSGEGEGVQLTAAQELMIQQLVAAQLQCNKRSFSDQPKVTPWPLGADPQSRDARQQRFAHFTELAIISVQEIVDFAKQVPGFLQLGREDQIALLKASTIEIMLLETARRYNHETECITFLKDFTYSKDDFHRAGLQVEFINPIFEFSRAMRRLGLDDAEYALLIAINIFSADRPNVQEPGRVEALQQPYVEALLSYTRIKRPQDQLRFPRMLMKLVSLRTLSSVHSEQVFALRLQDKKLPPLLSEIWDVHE
Protocol: as §1, §2, §3

Row | SMILES | EC50 (LXRα full length (FL)) | EC50 [1] | EC50 (LXRβ full length (FL))
1 | Cc1c(CN(Cc2ccc(-c3cccc(C(C)(C)C(=O)O)c3)cc2)Cc2ccc(C(F)(F)F)o2)c2ccccc2[nH]c1=O [27/22] | 0.1 to 1 µM | 0.1 to 1 µM | < 0.1 µM
2 | CNc1nc(-c2cccc(C(C)(C)C(=O)O)c2)ccc1CN(Cc1ccc(C(F)(F)F)o1)C(=O)c1c(C)ccc2ccccc12 [Example 32, 2-Methyl-2-(3-(5-((2-methyl-N-((5-(trifluoromethyl)furan-2-yl)methyl)-1-naphthamido)methyl)-6-(methylamino)pyridin-2-yl)phenyl)propanoic acid] | 0.1 to 1 µM | > 10 µM | 0.1 to 1 µM
3 | Cc1cc(C)c([N+](=O)[O-])c(C)c1C(=O)N(Cc1ccc(-c2cccc(C(C)(C)C(=O)O)c2)cc1)Cc1ccc(C(F)(F)F)o1 [27/46] | < 0.1 µM | < 0.1 µM | < 0.1 µM
4 | COc1cc(-c2cccc(C(C)(C)C(=O)O)c2)ccc1CN(Cc1ccc(C(F)(F)F)o1)C(=O)c1c(C)c(C)nc2cccnc12 [27/108] | < 0.1 µM | 0.1 to 1 µM | < 0.1 µM
5 | O=C(O)CS(=O)(=O)c1cccc(-c2ccc(CN(Cc3ccc(C(F)(F)F)o3)Cc3cccc4ccccc34)cc2)c1 [7/2] | 0.1 to 1 µM | 1 to 10 µM | 0.1 to 1 µM
6 | Cc1nc2ccccc2c(C(=O)N(Cc2ccc(C(F)(F)F)o2)Cc2ccc(-c3cccc(C(C)(C)C(=O)O)c3)cc2C#N)c1C [27/105] | < 0.1 µM | 0.1 to 1 µM | < 0.1 µM
7 | Cc1ccc2ccccc2c1C(=O)N(Cc1ccc(-c2cccc([C@H](C)C(=O)O)c2)cc1)Cc1cccc(C(F)(F)F)c1 [27/83] | < 0.1 µM | < 0.1 µM | < 0.1 µM
8 | Cc1ccc2nc(C)cc(C(=O)N(Cc3ccc(-c4cccc(C(C)(C)C(=O)O)c4)cc3)Cc3ccc(C(F)(F)F)o3)c2c1 [27/125] | < 0.1 µM | 0.1 to 1 µM | < 0.1 µM
9 | Cc1ccc2ccccc2c1C(=O)N(Cc1ccc(C(F)(F)F)o1)C1COc2cc(-c3cccc(C(C)(C)C(=O)O)c3)ccc21 (stereo not drawn) [27/4] | 0.1 to 1 µM | > 10 µM | 0.1 to 1 µM
10 | Cc1ccc2cnccc2c1C(=O)N(Cc1ccc(-c2cccc(C(C)(C)C(=O)O)c2)cc1)Cc1ccc(C(F)(F)F)o1 [27/86] | < 0.1 µM | < 0.1 µM | < 0.1 µM
11 | Cc1cc(C)c(CN(Cc2ccc(-c3cccc(S(=O)(=O)CC(=O)O)c3)cc2)Cc2ccc(C(=O)N(C)C)o2)c(C)c1 [7/13] | 1 to 10 µM | 1 to 10 µM | 1 to 10 µM
12 | Cc1cc(C(=O)N(Cc2ccc(-c3cccc(C(C)(C)C(=O)O)c3)cc2)Cc2ccc(C(F)(F)F)o2)c2ncccc2n1 [27/111] | 0.1 to 1 µM | 1 to 10 µM | < 0.1 µM
13 | Cc1ccc2ccccc2c1C(=O)N(Cc1ccc(-c2cccc(S(=O)(=O)CC(=O)O)c2)cc1)Cc1ccc(C(F)(F)F)[nH]1 [27/3] | 1 to 10 µM | 1 to 10 µM | 1 to 10 µM
14 | Cc1ccc2ccccc2c1C(=O)N(Cc1ccc(C(F)(F)F)o1)Cc1ccc(-c2cncc(S(=O)(=O)CC(=O)O)c2)cc1Cl [27/58] | 0.1 to 1 µM | 1 to 10 µM | 0.1 to 1 µM
15 | Cc1cc(C)c(CN(Cc2ccc(-c3cccc(S(=O)(=O)CC(=O)NS(C)(=O)=O)c3)cc2)Cc2ccc(C(F)(F)F)o2)c(C)c1 [Example 2] | 1 to 10 µM | 1 to 10 µM | 0.1 to 1 µM
16 | Cc1nc2ccc(=O)[nH]c2c(C(=O)N(Cc2ccc(-c3cccc(C(C)(C)C(=O)O)c3)cc2)Cc2ccc(C(F)(F)F)o2)c1C [Example 36, 2-(4′-((2,3-Dimethyl-6-oxo-N-((5-(trifluoromethyl)furan-2-yl)methyl)-5,6-dihydro-1,5-naphthyridine-4-carboxamido)methyl)-[1,1′-biphenyl]-3-yl)-2-methylpropanoic acid] | 1 to 10 µM | 1 to 10 µM | 1 to 10 µM
17 | Cc1nc2cccnc2c(C(=O)N(Cc2ccc(-c3cccc(C4(C(=O)O)CC4)c3)cc2)Cc2ccc(C(F)(F)F)o2)c1C [27/112] | < 0.1 µM | 0.1 to 1 µM | < 0.1 µM
18 | COc1cc(-c2cc(F)c(CO)c(S(=O)(=O)CC(=O)O)c2)ccc1CN(Cc1ccc(C(F)(F)F)o1)Cc1c(C)ccc2ccccc12 [22/9] | 0.1 to 1 µM | 1 to 10 µM | < 0.1 µM
19 | Cc1cc(C)c(CN(Cc2ccc(C(F)(F)F)o2)Cc2ccc(-c3cccc(S(=O)(=O)CC(=O)O)c3)cc2F)c(C)c1 [Example 15, 2-((3′-Fluoro-4′-((((5-(trifluoromethyl)furan-2-yl)methyl)(2,4,6-trimethylbenzyl)amino)methyl)-[1,1′-biphenyl]-3-yl)sulfonyl)acetic acid] | 0.1 to 1 µM | 1 to 10 µM | 0.1 to 1 µM
